# According to PubChem BioAssay AID270 (DTP/NCI, 2004):
# “And” between values parts separate entries of the source, which are not always exact repeats. Equal entries are not always repeated. Inconclusive results are not listed.
# Test system: BDF1 mice, s.c. Lewis lung carcinoma, T/C %
# Test: NCI In Vivo Anticancer Drug Screen. Data for tumor model Lewis Lung Carcinoma (subcutaneous) in B6D2F1 (BDF1) mice
# Procedure, shortened: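 Tumor-bearing mice were treated with test compound, and either survival or tumor size was recorded. Values are the treated-group measurement divided by that of the vehicle-treated control group.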
smiles,measurement,setting,value
Cc1c(N)nc([C@H](CC(N)=O)NC[C@H](N)C(N)=O)nc1C(=O)N[C@H](C(=O)N[C@H](C)[C@@H](O)[C@H](C)C(=O)N[C@H](C(=O)NCCc1nc(-c2nc(C(=O)NCCC[S+](C)C)cs2)cs1)[C@@H](C)O)C(OC1OC(CO)C(O)C(O)C1OC1OC(CO)C(O)C(OC(N)=O)C1O)c1cnc[nH]1 (stereo partly specified),T/C,"endpoint: mean survival time, dose: 4.0 mg/kg/injection, schedule: Q01DX009 (ip), vehicle: saline, higher = longer survival",111 % of control
same,T/C,"endpoint: mean survival time, dose: 8.0 mg/kg/injection, schedule: Q01DX009 (ip), vehicle: saline, higher = longer survival",102 % of control
same,T/C,"endpoint: mean survival time, dose: 12.0 mg/kg/injection, schedule: Q01DX009 (ip), vehicle: saline, higher = longer survival",107 % of control
same,T/C,"endpoint: median survival time, dose: 1.0 mg/kg/injection, schedule: Q01DX009 (ip), vehicle: water, higher = longer survival",90 % of control
same,T/C,"endpoint: median survival time, dose: 1.7 mg/kg/injection, schedule: Q01DX009 (ip), vehicle: water, higher = longer survival",94 % of control
same,T/C,"endpoint: median survival time, dose: 2.0 mg/kg/injection, schedule: Q01DX009 (ip), vehicle: saline, higher = longer survival",107 % of control
same,T/C,"endpoint: median survival time, dose: 2.0 mg/kg/injection, schedule: Q01DX009 (ip), vehicle: water, higher = longer survival",112 % of control
same,T/C,"endpoint: median survival time, dose: 2.9 mg/kg/injection, schedule: Q01DX009 (ip), vehicle: water, higher = longer survival",94 % of control
same,T/C,"endpoint: median survival time, dose: 3.12 mg/kg/injection, schedule: Q04DX003 (sc), vehicle: saline, higher = longer survival",90 % of control and 92 % of control
same,T/C,"endpoint: median survival time, dose: 4.0 mg/kg/injection, schedule: Q01DX009 (ip), vehicle: water, higher = longer survival",94 % of control and 118 % of control
same,T/C,"endpoint: median survival time, dose: 4.0 mg/kg/injection, schedule: Q04DX003 (ip), vehicle: saline, higher = longer survival",96 % of control and 110 % of control
same,T/C,"endpoint: median survival time, dose: 4.8 mg/kg/injection, schedule: Q01DX009 (ip), vehicle: water, higher = longer survival",118 % of control
same,T/C,"endpoint: median survival time, dose: 6.25 mg/kg/injection, schedule: Q04DX003 (sc), vehicle: saline, higher = longer survival",96 % of control
same,T/C,"endpoint: median survival time, dose: 8.0 mg/kg/injection, schedule: Q01DX009 (ip), vehicle: water, higher = longer survival",102 % of control and 112 % of control
same,T/C,"endpoint: median survival time, dose: 8.0 mg/kg/injection, schedule: Q04DX003 (ip), vehicle: saline, higher = longer survival",96 % of control and 114 % of control
same,T/C,"endpoint: median survival time, dose: 12.0 mg/kg/injection, schedule: Q01DX009 (ip), vehicle: saline, higher = longer survival",100 % of control
same,T/C,"endpoint: median survival time, dose: 12.5 mg/kg/injection, schedule: Q04DX003 (sc), vehicle: saline, higher = longer survival",102 % of control and 108 % of control
same,T/C,"endpoint: median survival time, dose: 16.0 mg/kg/injection, schedule: Q04DX003 (ip), vehicle: saline, higher = longer survival",84 % of control and 112 % of control
same,T/C,"endpoint: median survival time, dose: 22.2 mg/kg/injection, schedule: Q01DX009 (ip), vehicle: water, higher = longer survival",82 % of control
same,T/C,"endpoint: median survival time, dose: 25.0 mg/kg/injection, schedule: Q04DX003 (sc), vehicle: saline, higher = longer survival",98 % of control
same,T/C,"endpoint: median survival time, dose: 32.0 mg/kg/injection, schedule: Q04DX003 (ip), vehicle: saline, higher = longer survival",50 % of control and 108 % of control
same,T/C,"endpoint: median survival time, dose: 50.0 mg/kg/injection, schedule: Q04DX003 (sc), vehicle: saline, higher = longer survival",117 % of control and 118 % of control
same,T/C,"endpoint: median survival time, dose: 64.0 mg/kg/injection, schedule: Q04DX003 (ip), vehicle: saline, higher = longer survival",37 % of control and 97 % of control
same,T/C,"endpoint: median survival time, dose: 100.0 mg/kg/injection, schedule: Q04DX003 (sc), vehicle: saline, higher = longer survival",116 % of control and 124 % of control
same,T/C,"endpoint: median tumor weight (est.), dose: 2.0 mg/kg/injection, schedule: Q01DX009 (ip), vehicle: saline, higher = larger tumour",71 % of control
same,T/C,"endpoint: median tumor weight (est.), dose: 2.0 mg/kg/injection, schedule: Q01DX009 (ip), vehicle: water, higher = larger tumour",34 % of control
same,T/C,"endpoint: median tumor weight (est.), dose: 4.0 mg/kg/injection, schedule: Q01DX009 (ip), vehicle: saline, higher = larger tumour",77 % of control
same,T/C,"endpoint: median tumor weight (est.), dose: 4.0 mg/kg/injection, schedule: Q01DX009 (ip), vehicle: water, higher = larger tumour",24 % of control
same,T/C,"endpoint: median tumor weight (est.), dose: 8.0 mg/kg/injection, schedule: Q01DX009 (ip), vehicle: saline, higher = larger tumour",34 % of control
same,T/C,"endpoint: median tumor weight (est.), dose: 8.0 mg/kg/injection, schedule: Q01DX009 (ip), vehicle: water, higher = larger tumour",8 % of control
same,T/C,"endpoint: median tumor weight (est.), dose: 16.0 mg/kg/injection, schedule: Q01DX009 (ip), vehicle: saline, higher = larger tumour",26 % of control
